Measured values as given in PMC9046198, “Peptidoglycan biosynthesis is driven by lipid transfer along enzyme-substrate affinity gradients” (Nature Communications, 2022).

Experiments:
MraY [1] = molecular target: T1, MraY (Aquifex aeolicus, UniProt O66465); experiment: native MS, endogenous adducts and exogenous C55-P titration; assay type: binding
T1 construct: wild-type MraY, MBP tag removed with HRV3C protease
T1 sequence (O66465 1-359): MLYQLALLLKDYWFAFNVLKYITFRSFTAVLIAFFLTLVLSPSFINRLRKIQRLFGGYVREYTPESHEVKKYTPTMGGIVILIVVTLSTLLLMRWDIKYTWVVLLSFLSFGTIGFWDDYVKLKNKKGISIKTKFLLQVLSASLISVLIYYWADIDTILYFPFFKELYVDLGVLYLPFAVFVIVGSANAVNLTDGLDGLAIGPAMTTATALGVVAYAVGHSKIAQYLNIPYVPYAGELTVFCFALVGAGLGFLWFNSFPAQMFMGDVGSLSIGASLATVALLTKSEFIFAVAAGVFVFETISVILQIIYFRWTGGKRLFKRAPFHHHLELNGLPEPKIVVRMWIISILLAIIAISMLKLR

MurG [2] = molecular target: T2, MurG (Escherichia coli, UniProt P17443); experiment: turnover by purified MurG (with MraY-bound lipid I) to lipid II monitored by native MS; assay type: biochemical
T2 construct: MurG-GFP-His6 fusion, tag removed with TEV protease
T2 sequence (P17443 2-355): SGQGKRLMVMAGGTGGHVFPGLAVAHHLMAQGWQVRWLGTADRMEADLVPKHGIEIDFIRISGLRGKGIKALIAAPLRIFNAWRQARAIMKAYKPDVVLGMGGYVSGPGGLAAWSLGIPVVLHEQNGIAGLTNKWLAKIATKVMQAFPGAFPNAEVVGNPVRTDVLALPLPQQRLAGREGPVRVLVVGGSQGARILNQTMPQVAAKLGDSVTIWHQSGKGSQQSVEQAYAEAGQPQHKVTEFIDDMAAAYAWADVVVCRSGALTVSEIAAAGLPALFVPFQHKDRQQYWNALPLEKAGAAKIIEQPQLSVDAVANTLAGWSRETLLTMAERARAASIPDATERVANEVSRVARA

MurG [3] = molecular target: T2, MurG; experiment: native MS titration ([…] MurG, […] lipid I), apparent Kd; assay type: binding
MurG [4] = molecular target: T2, MurG; experiment: native MS titration, apparent Kd; assay type: binding
MraY [5] = molecular target: T1, MraY; experiment: native MS binding to MraY dimer; also inhibits lipid I synthesis by purified MraY ([…])

CC(C)=CCC/C(C)=C/CC/C(C)=C/CC/C(C)=C\CC/C(C)=C\CC/C(C)=C\CC/C(C)=C\CC/C(C)=C\CC/C(C)=C\CC/C(C)=C\CC/C(C)=C\COP(=O)(O)O [C55-P, undecaprenyl phosphate] was tested, and the “native MS, endogenous adducts and exogenous C55-P titration” value (MraY [1]) was “The binding of up to four C55-P molecules per MraY dimer could be clearly resolved”.

CC(=O)N[C@H]1[C@@H](OP(=O)(O)OP(=O)(O)OC[C@H]2O[C@@H](n3ccc(=O)[nH]c3=O)[C@H](O)[C@@H]2O)O[C@H](CO)[C@@H](O)[C@@H]1O [UDP-GlcNAc] was tested, and the “turnover by purified MurG (with MraY-bound lipid I) to lipid II monitored by nat” value (MurG [2]) was “we incubated MraY with MurG and UDP-GlcNAc and observed the formation of lipid II”.

Work on CC(=O)N[C@H]1[C@@H](OP(=O)(O)OP(=O)(O)OC/C=C(/C)CC/C=C(/C)CC/C=C(/C)CC/C=C(/C)CC/C=C(/C)CC/C=C(/C)CC/C=C(/C)CC/C=C(/C)CC/C=C(\C)CC/C=C(\C)CCC=C(C)C)O[C@H](CO)[C@@H](O)[C@@H]1O[C@H](C)C(=O)N[C@@H](C)C(=O)N[C@H](CCC(=O)N[C@@H](CCCCN)C(=O)N[C@H](C)C(=O)N[C@H](C)C(=O)O)C(=O)O [lipid I] yielded a Kd (MurG [3]) of 1.9 ± 0.4 µM.

Molecule lipid II has a Kd (MurG [4]) of 2.6 ± 0.9 µM.

tunicamycin was tested, and the “native MS binding to MraY dimer; also inhibits lipid I synthesis by purified Mra” value (MraY [5]) was “We also captured the binding of a nucleoside antibiotic tunicamycin to the MraY dimer”.
